In data set [1] the target is T1, Recombinant mouse catalase protein (CAT) (Mus musculus, UniProt P24270).
T1 construct: commercial recombinant protein, immobilised on CM5 chip
T1 sequence (P24270 2-527): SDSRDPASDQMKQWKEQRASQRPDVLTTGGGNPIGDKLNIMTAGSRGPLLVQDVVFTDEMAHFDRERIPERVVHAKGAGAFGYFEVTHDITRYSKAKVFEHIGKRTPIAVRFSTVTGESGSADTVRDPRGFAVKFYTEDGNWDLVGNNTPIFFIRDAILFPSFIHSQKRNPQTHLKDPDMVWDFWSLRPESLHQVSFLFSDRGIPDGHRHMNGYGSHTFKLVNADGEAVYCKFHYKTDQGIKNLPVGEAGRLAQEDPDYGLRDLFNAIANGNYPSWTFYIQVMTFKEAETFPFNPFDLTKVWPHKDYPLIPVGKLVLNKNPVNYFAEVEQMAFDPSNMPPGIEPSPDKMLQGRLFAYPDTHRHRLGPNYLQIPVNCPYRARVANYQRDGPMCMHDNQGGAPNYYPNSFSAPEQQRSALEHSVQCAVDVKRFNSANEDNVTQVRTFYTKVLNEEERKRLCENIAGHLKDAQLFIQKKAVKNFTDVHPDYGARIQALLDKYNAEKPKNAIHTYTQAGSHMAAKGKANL
The data set is described as follows: surface plasmon resonance (Biacore T200), steady-state affinity. It counts as binding.

In data set [2] the target is T2, recombinant human CAT protein (Homo sapiens, UniProt P04040).
T2 construct: commercial recombinant protein
T2 sequence (P04040 2-527): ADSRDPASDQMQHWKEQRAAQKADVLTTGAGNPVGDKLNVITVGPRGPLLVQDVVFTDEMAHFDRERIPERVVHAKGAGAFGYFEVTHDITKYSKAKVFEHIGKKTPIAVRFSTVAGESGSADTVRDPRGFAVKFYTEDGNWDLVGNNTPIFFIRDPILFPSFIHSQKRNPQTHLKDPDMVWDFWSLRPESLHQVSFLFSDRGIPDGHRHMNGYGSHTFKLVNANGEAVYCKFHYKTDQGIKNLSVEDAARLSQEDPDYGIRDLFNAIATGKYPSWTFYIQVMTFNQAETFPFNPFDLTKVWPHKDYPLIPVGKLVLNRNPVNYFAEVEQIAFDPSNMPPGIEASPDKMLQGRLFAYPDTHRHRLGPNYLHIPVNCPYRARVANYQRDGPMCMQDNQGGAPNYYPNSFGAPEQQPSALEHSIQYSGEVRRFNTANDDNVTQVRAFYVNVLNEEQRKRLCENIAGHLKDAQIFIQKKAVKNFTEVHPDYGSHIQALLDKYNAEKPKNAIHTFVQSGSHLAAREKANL
The data set is described as follows: catalase activity kit. It counts as biochemical. Conditions: 20 min preincubation with 1 μM 13-HODE, room temperature not stated.

Data set [3] concerns the molecule itself. The data set can be described thus: cross-linking; primary mouse hepatocytes treated with or without 1 uM 13-HODE for 6 h, then 100 uM DSS crosslinker for 1 h before protein extraction; western blot for CAT tetramer and monomer; monomer to tetramer.

For `CCCCC[C@H](O)/C=C/C=C\CCCCCCCC(=O)O` [13(S)-HODE], in data set [1], the Kd amounted to 2420 nM.

For `CCCCCC(O)/C=C/C=C\CCCCCCCC(=O)O` (stereo not drawn) [13-HODE], the “CAT activity at 1 μM” value in data set [2] is “incubated recombinant CAT protein with 13-HODE and found that it inhibited CAT activity in vitro”.

B1: Catalase (CAT) (enzyme, UniProt P24270 1-527, looked up)
chain: MSDSRDPASDQMKQWKEQRASQRPDVLTTGGGNPIGDKLNIMTAGSRGPLLVQDVVFTDEMAHFDRERIPERVVHAKGAGAFGYFEVTHDITRYSKAKVFEHIGKRTPIAVRFSTVTGESGSADTVRDPRGFAVKFYTEDGNWDLVGNNTPIFFIRDAILFPSFIHSQKRNPQTHLKDPDMVWDFWSLRPESLHQVSFLFSDRGIPDGHRHMNGYGSHTFKLVNADGEAVYCKFHYKTDQGIKNLPVGEAGRLAQEDPDYGLRDLFNAIANGNYPSWTFYIQVMTFKEAETFPFNPFDLTKVWPHKDYPLIPVGKLVLNKNPVNYFAEVEQMAFDPSNMPPGIEPSPDKMLQGRLFAYPDTHRHRLGPNYLQIPVNCPYRARVANYQRDGPMCMHDNQGGAPNYYPNSFSAPEQQRSALEHSVQCAVDVKRFNSANEDNVTQVRTFYTKVLNEEERKRLCENIAGHLKDAQLFIQKKAVKNFTDVHPDYGARIQALLDKYNAEKPKNAIHTYTQAGSHMAAKGKANL
notes: Catalase, mouse, endogenous in primary hepatocytes of C57BL/6 mice; Detected by western blot as monomer and tetramer after DSS cross-linking; source: endogenous, primary mouse hepatocytes (cross-linked in cells before protein extraction)
Regarding B1, the “stoichiometry N” value in data set [3] came out at 4.

These data come from paper PMC10710422, “Senescence-associated 13-HODE production promotes age-related liver steatosis by directly inhibiting catalase activity” (Nature Communications, 2023).
